This passage reports activation results from paper PMC10175918 (Communications Biology, 2023).

Where two headings read alike, the source gives them in different places.

What all share (experiment): TGFα-shedding assay-based GPCR screening with chimeric Gα subunit proteins
What all share (type): cell-based

For assay [1], the target named is T1, 348 GPCRs (Homo sapiens, UniProt O14843).
T1 construct: expressed in transfected cells; host or cells: HEK293A
T1 sequence (O14843 1-346): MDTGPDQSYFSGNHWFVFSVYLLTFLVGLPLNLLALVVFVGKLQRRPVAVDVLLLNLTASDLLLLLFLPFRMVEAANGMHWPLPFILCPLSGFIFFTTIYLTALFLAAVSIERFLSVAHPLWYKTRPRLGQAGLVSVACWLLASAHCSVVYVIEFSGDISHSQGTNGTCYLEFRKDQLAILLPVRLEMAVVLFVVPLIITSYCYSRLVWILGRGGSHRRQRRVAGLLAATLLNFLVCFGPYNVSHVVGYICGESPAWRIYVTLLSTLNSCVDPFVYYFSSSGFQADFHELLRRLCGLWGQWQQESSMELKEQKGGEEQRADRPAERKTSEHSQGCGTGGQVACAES
As to conditions: 10µM, Favipiravir 100μM.

Assay [2] deals with 348 GPCRs (Homo sapiens, UniProt P21728). As to conditions: 10µM, Favipiravir 100μM.
348 GPCRs (Homo sapiens, UniProt P21728), sequence (P21728 whole entry): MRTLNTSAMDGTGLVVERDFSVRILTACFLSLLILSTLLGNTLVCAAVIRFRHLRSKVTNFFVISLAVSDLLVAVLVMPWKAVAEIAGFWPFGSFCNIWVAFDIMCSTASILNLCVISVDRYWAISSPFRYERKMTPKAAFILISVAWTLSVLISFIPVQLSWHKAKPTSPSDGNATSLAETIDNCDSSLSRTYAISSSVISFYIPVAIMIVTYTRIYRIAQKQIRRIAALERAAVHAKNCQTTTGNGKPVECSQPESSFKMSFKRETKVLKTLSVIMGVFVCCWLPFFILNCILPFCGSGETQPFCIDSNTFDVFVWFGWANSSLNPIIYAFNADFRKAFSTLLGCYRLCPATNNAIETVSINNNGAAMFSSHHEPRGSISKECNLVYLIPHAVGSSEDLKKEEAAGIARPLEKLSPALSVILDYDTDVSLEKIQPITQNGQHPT
The target in assay [3] is T2, 348 GPCRs (Homo sapiens, UniProt P30411).
T2 sequence (P30411 1-391): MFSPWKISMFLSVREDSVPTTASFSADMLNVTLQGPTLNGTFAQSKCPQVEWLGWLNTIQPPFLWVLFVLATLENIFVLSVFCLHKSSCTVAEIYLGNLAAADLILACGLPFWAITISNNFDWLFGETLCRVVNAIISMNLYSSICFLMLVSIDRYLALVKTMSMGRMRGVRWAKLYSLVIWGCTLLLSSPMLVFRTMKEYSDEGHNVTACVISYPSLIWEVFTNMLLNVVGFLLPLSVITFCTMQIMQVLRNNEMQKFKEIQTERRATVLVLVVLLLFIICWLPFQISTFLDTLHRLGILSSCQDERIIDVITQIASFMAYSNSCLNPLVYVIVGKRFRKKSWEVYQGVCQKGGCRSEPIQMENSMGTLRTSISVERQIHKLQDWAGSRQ
As to conditions: 10µM, Favipiravir 100μM.

For assay [4], the target named is T3, 348 GPCRs (Homo sapiens, UniProt P30559).
T3 construct: expressed in transfected cells; host or cells: HEK293A
T3 sequence (P30559 1-389): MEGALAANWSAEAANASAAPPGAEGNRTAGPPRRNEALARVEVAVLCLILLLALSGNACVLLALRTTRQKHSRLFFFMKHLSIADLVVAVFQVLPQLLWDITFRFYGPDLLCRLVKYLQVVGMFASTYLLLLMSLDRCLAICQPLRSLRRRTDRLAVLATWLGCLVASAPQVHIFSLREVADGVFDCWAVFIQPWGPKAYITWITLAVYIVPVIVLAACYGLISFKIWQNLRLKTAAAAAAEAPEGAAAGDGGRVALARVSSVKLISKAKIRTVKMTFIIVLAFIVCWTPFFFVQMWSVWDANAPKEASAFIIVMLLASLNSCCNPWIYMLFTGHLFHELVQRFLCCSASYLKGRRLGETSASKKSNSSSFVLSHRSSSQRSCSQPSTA

Assay [5] addresses T4, 348 GPCRs (Homo sapiens, UniProt P41597).
T4 construct: expressed in transfected cells; host or cells: HEK293A
As to conditions: 10µM, Favipiravir 100μM.

In assay [6] the target is T5, 348 GPCRs (Homo sapiens, UniProt P51679).
T5 construct: expressed in transfected cells; host or cells: HEK293A
T5 sequence (P51679 1-360): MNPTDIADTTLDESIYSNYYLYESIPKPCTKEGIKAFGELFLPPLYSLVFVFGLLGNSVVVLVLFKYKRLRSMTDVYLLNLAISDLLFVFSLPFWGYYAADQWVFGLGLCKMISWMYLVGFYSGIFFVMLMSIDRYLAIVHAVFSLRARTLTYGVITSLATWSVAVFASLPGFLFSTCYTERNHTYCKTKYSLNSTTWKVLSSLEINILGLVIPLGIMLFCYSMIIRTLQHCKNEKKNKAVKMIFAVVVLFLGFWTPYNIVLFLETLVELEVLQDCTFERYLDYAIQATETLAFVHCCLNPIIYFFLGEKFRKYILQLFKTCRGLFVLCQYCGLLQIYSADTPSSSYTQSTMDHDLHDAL
Conditions: 10µM, Favipiravir 100μM.

Assay [7] has as its target T6, 348 GPCRs (Homo sapiens, UniProt Q8NFJ6).
T6 construct: expressed in transfected cells; host or cells: HEK293A
As to conditions: 10µM, Favipiravir 100μM.

For assay [8], the target named is T7, 348 GPCRs (Homo sapiens, UniProt Q96P67).
T7 construct: expressed in transfected cells; host or cells: HEK293A
T7 sequence (Q96P67 whole entry): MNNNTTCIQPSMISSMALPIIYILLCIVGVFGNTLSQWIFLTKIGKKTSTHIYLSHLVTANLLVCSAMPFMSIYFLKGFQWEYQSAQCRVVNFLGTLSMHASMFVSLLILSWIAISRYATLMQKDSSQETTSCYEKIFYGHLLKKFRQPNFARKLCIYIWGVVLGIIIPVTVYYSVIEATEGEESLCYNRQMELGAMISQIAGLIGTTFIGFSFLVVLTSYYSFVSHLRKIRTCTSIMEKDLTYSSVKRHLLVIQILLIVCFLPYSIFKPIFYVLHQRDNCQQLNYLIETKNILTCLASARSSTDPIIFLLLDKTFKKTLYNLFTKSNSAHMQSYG
Conditions: 10µM, Favipiravir 100μM.

The target in assay [9] is T8, 348 GPCRs (Homo sapiens, UniProt Q9UBS5).
T8 construct: expressed in transfected cells; host or cells: HEK293A
T8 sequence (Q9UBS5 20-961): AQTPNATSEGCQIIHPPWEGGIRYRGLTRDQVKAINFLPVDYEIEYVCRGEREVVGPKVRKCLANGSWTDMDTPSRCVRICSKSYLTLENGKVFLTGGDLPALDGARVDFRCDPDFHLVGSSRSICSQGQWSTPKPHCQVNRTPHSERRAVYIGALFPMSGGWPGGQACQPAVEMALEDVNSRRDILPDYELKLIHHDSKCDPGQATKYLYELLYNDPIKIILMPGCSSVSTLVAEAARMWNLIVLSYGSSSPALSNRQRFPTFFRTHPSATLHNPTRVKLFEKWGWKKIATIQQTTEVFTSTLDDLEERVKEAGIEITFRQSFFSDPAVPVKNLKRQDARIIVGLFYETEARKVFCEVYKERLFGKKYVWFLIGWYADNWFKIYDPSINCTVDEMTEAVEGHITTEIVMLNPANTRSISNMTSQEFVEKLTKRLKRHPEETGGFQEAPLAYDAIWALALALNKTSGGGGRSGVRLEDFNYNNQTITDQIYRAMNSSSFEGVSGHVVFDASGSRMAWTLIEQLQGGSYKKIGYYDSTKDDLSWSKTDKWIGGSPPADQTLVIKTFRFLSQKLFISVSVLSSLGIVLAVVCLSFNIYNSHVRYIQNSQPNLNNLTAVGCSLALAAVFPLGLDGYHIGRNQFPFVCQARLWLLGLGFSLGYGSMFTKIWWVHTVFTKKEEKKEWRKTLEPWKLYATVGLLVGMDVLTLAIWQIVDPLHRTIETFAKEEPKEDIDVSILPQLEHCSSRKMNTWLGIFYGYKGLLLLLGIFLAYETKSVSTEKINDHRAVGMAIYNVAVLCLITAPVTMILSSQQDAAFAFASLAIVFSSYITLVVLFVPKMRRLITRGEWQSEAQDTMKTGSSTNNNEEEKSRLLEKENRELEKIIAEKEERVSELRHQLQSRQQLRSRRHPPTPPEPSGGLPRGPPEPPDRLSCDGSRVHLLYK
Conditions: 10µM, Favipiravir 100μM.

The mark [10] stands for this setting: FFA3 (free fatty acid receptor 3), read-out: % GPCR activation compared to TPA.
[11] abbreviates: D1 (dopamine receptor D1), read-out: % GPCR activation compared to TPA.
[12] abbreviates: B2 (bradykinin receptor B2), read-out: % GPCR activation compared to TPA.
The mark [13] stands for this setting: GPCR OXTR (oxytocin Receptor), read-out: % GPCR activation compared to TPA.
Setting [14] is: CCR2 (C-C motif chemokine receptor 2), read-out: % GPCR activation compared to TPA.
The mark [15] stands for this setting: CCR4 (C-C motif chemokine receptor 4), read-out: % GPCR activation compared to TPA.
The mark [16] stands for this setting: PK2 (prokineticin receptor 2), read-out: % GPCR activation compared to TPA.
[17] abbreviates: PROKR2 (prokineticin receptor 2), read-out: % GPCR activation compared to TPA.
[18] abbreviates: GPR82 (G Protein-Coupled Receptor 82), read-out: % GPCR activation compared to TPA.
Setting [19] is: GABBR1 (gamma-aminobutyric acid (GABA) B receptor, 1), read-out: % GPCR activation compared to TPA.
[20] abbreviates: read-out: % GPCR activation compared to TPA, FFA3 (free fatty acid receptor 3).
The mark [21] stands for this setting: read-out: % GPCR activation compared to TPA, D1 (dopamine receptor D1).
The mark [22] stands for this setting: read-out: % GPCR activation compared to TPA, B2 (bradykinin receptor B2).
The mark [23] stands for this setting: read-out: % GPCR activation compared to TPA, GPCR OXTR (oxytocin Receptor).
The mark [24] stands for this setting: read-out: % GPCR activation compared to TPA, CCR2 (C-C motif chemokine receptor 2).
[25] abbreviates: read-out: % GPCR activation compared to TPA, CCR4 (C-C motif chemokine receptor 4).
The mark [26] stands for this setting: read-out: % GPCR activation compared to TPA, PK2 (prokineticin receptor 2).
The mark [27] stands for this setting: read-out: % GPCR activation compared to TPA, PROKR2 (prokineticin receptor 2).
The mark [28] stands for this setting: read-out: % GPCR activation compared to TPA, GPR82 (G Protein-Coupled Receptor 82).
[29] abbreviates: read-out: % GPCR activation compared to TPA, GABBR1 (gamma-aminobutyric acid (GABA) B receptor, 1).

T6 sequence (Q8NFJ6 whole entry): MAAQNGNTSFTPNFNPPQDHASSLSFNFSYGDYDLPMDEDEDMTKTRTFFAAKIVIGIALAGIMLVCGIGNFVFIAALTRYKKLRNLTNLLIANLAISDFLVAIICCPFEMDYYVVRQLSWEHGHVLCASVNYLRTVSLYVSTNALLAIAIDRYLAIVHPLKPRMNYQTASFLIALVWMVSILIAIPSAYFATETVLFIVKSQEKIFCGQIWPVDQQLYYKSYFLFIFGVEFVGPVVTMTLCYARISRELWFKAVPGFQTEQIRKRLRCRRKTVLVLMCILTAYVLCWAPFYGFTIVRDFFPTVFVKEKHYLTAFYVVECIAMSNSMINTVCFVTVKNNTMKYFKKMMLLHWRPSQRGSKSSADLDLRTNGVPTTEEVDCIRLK
T4 sequence (P41597 whole entry): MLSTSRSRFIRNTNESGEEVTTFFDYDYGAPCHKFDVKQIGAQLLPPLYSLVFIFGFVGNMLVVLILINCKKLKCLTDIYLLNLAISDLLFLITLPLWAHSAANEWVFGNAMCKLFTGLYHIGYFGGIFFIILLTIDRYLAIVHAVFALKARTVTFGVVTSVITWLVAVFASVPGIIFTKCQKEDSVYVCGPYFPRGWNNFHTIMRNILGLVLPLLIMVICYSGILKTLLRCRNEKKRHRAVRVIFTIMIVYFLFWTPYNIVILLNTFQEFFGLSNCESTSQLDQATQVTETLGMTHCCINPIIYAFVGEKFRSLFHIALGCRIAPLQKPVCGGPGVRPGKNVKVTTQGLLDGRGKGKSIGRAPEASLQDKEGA

Take `CC(C)C(=O)OC[C@H]1O[C@@H](n2ccc(NO)nc2=O)[C@H](O)[C@@H]1O` [molnupiravir]: the activation at 10 µM was -0.0973% in assay [1] (setting [10]); 1.11% in [2] (setting [11]); 1.04% in assay [3] (setting [12]); -2.8% in assay [4] (setting [13]); -5.79% in [7] (setting [16]). Further, the activation at 100 µM in assay [5] (setting [14]) is 0.105%; in assay [6] (setting [15]) it was 1.67%; in [7] (setting [17]), -1.79%; in [8] (setting [18]), -1.43%; in [9] (setting [19]), -1.05%.

For the compound `CC(C)OC(=O)[C@H](C)N[P@](=O)(OC[C@H]1O[C@@H](n2ccc(=O)[nH]c2=O)[C@](C)(F)[C@@H]1O)Oc1ccccc1` [sofosbuvir], the activation at 10 µM in assay [1] (setting [20]) was 0.217%; in assay [2] (setting [21]), -0.068%; in [3] (setting [22]), 0.561%; in assay [4] (setting [23]), -3.36%; in assay [7] (setting [26]), -0.621%. Also, the activation at 100 µM in assay [5] (setting [24]) was -0.876%; in assay [6] (setting [25]), -2.38%; in assay [7] (setting [27]), -2.61%; in [8] (setting [28]) it was 0.262%; in assay [9] (setting [29]) it was -1.14%.

Regarding `N#C[C@@]1(c2ccc3c(N)ncnn23)O[C@H](CO)[C@@H](O)[C@H]1O` [GS441524], the activation at 10 µM in assay [1] (setting [10]) was -0.449%; in [2] (setting [11]), 0.291%; in assay [3] (setting [12]), -3%; in assay [4] (setting [13]), -1.2%; in [7] (setting [16]) it was -2.39%. Also, the activation at 100 µM in assay [5] (setting [14]) is 2.78%; in assay [6] (setting [15]) it was -0.385%; in assay [7] (setting [17]) it was -1.59%; in assay [8] (setting [18]) it was -1.55%; in assay [9] (setting [19]) it was -3.77%.

With `NC(=O)c1nc(F)cnc1O` [favipiravir, 6-fluoro-3-hydroxy-2-pyrazinecarboxamide], the activation at 10 µM is -0.552% in [1] (setting [10]), -0.0785% in assay [2] (setting [11]), 1.08% in [3] (setting [12]) and -4.29% in assay [7] (setting [16]). In addition, the activation at 100 µM is -0.726% in [4] (GPCR OXTR (oxytocin Receptor), 100μM, read-out: % GPCR activation compared to TPA); 5.66% in assay [5] (setting [14]); 0.85% in assay [6] (setting [15]); 0.524% in assay [7] (setting [17]); -0.0995% in assay [8] (setting [18]); -4.01% in assay [9] (setting [19]).

`CCC(CC)COC(=O)[C@H](C)N[P@](=O)(OC[C@H]1O[C@@](C#N)(c2ccc3c(N)ncnn23)[C@H](O)[C@@H]1O)Oc1ccccc1` [remdesivir]: the activation at 10 µM in assay [1] (setting [20]) is 4.74%; in [2] (setting [21]), 4.77%; in assay [3] (setting [22]), 1.57%; in assay [4] (setting [23]), 0.33%; in assay [7] (setting [26]) it was -3.23%. Also, the activation at 100 µM in assay [5] (setting [24]) was 5.23%; in assay [6] (setting [25]), 1.77%; in assay [7] (setting [27]), 0.417%; in assay [8] (setting [28]), -0.315%; in assay [9] (setting [29]), -3.66%.
